Results on 9 sequences are retold here after PMC8748687 (Nature Communications, 2022).

Where only a bound is given, the exact number is not on record here.

In one assay the target is TCR YLQ7. The assay is classed as binding, human. To be noted: for Kd: read-out: KD of TCR YLQ7 for peptide–HLA-A2.
The target of a further assay is TCR RLQ3. The assay is classed as binding, human. To be noted: read-out: KD of TCR RLQ3 for peptide–HLA-A2.

The Kd is the concentration at which binding is half-saturated. Consider KLQPLTFLL [MERS-KLQ], for which the Kd at TCR YLQ7 is over 50 µM. The same measure, in the same setting: for PLSKRQYLL [HKU1-PLS] the value was over 50 µM. The same measure, in the same setting: for PLTSRQYLL [OC43-PLT] the value was over 50 µM. RLAALNAFV [NL63-RLA]: the Kd on TCR RLQ3 is over 100 µM. Same read-out and setting: for RLAALNVFV [229E-RLA] the value was over 100 µM.

Consider RLTALNAYV [HKU1-RLT], for which the Kd on TCR RLQ3 was over 100 µM. The same measure, in the same setting: for RLTTLNAFV [MERS-RLT] the value was over 100 µM. Turning to YLAPRTFML [GD_pangolin YLQ ortholog], in the assay with TCR YLQ7, the “Measured TCR ΔΔG, YLQ7” value stood at 1.7 kcal/mol.

Regarding YLKPTTFML [SARS-YLK], at TCR YLQ7, the Kd is over 50 µM.
